Experimental data as given in US20180273579A1, “COMPOUNDS WITH HIV MATURATION INHIBITORY ACTIVITY” (priority 2015, published 2018).
Where a name gives a salt, the structure may show the parent alone. Each block holds one compound with its values, some of them ahead of it.

Columns and labels:
HIV-1 (strain IIIB) = assay: MT4 Cell Antiviral Assay (general statement, control); type: cell-based; details: Human immunodeficiency virus 1, IIIB, control and standard in every assay, propidium iodide readout, read-out: expected range of IC50 values
Description: Antiviral HIV activity and compound-induced cytotoxicity were measured in parallel by means of a propidium iodide based procedure in the human T-cell lymphotropic virus transformed cell line MT4. Aliquots of the test compounds were serially diluted in medium (RPMI 1640, 10% fetal calf serum (FCS), and gentamycin) in 96-well plates (Costar 3598) using a Cetus Pro/Pette. Exponentially growing MT4 cells were harvested and centrifuged at 1000 rpm for 10 min in a Jouan centrifuge (model CR 4 12). Cell pellets were resuspended in fresh medium (RPMI 1640, 20% FCS, 20% IL-2, and gentamycin) to a density of 5×10^5 cells/ml. […]
For propidium iodide readout, 27 μl of 5% Nonidet-40 was added to each well of the incubation plate. […] The plates were analyzed in an automated assay instrument (Screen Machine, Idexx Laboratories). […]
For MTS readout, 20 μl CellTiter 96 AQ One Solution reagent (Promega #G3582) was added to each well. At 75 minutes following the addition of MTS reagent, absobance was read at 492 nm using a Tecan Sunrise 96-well plate reader. […]
For each assay plate, the results (relative fluorescence units, rfU, or OD values) of wells containing uninfected cells or infected cells with no compound were averaged, respectively. […] Percent of cells remaining is determined by the following formula: […]

HIV = details: cited from earlier work
NL4-3 wt = assay: MT4 Cell Antiviral Assay (NL4-3 wt); type: cell-based, HIV-1; details: Human immunodeficiency virus 1, NL43, HIV MT4 Antiviral Cell Assay
V370A = assay: MT4 Cell Antiviral Assay (V370A); type: cell-based, HIV-1; details: Human immunodeficiency virus 1, MT4, read-out: EC50 V370A (nM)

IC50 (HIV-1 (strain IIIB)): 40 to 120 nM
SMILES: Cc1cn([C@H]2C[C@H](N=[N+]=[N-])[C@@H](CO)O2)c(=O)[nH]c1=O [3′-azido-3′-deoxythymidine]

SMILES: C=C(C)[C@@H]1CC[C@]2(C(=O)O)CC[C@]3(C)[C@H](CC[C@@H]4[C@@]5(C)CC[C@H](OC(=O)CC(C)(C)C(=O)O)C(C)(C)[C@@H]5CC[C@]43C)[C@@H]12 [Bevirimat]
reduced HIV viral load, mean (HIV; patients with trough levels >=20 μg/mL and without key baseline Gag polymorphisms at Q369, V370 or T371): 1.3 log10/mL
viral load reduction (HIV; users with Gag polymorphisms at Q369, V370 or T371, versus patients without them): significantly lower load reductions

SMILES: CC(C)C1=C2[C@H]3CC[C@@H]4[C@@]5(C)CC=C(C6=CCC(C(=O)O)CC6)C(C)(C)[C@@H]5CC[C@@]4(C)[C@]3(C)CC[C@@]2(C(=O)NCCN2CCC(S(C)(=O)=O)CC2)CC1=O (stereo partly drawn) [Example 1, 4-((3aR,5aR,5bR,7aR,11aS,11bR,13aS)-1-Isopropyl-5a,5b,8,8,11a-pentamethyl-3a-((2-(4-(methylsulfonyl)piperidin-1-yl)ethyl)carbamoyl)-2-oxo-3,3a,4,5,5a,5b,6,7,7a,8,11,11a,11b,12,13,13a-hexadecahydro-2H-cyclopenta[a]chrysen-9-yl)cyclohex-3-enecarboxylic acid]
EC50 (NL4-3 wt): > 23900 nM
EC50 (V370A): > 25000 nM

SMILES: CC(C)C1=C2[C@H]3CC[C@@H]4[C@@]5(C)CC=C(C6=CCC(C(=O)O)CC6)C(C)(C)[C@@H]5CC[C@@]4(C)[C@]3(C)CC[C@@]2(C(=O)NCCN2CCS(=O)(=O)CC2)CC1=O (stereo partly drawn) [Example 2, 4-((3aR,5aR,5bR,7aR,11aS,11bR,13aS)-3a-((2-(1,1-Dioxidothiomorpholino)ethyl)carbamoyl)-1-isopropyl-5a,5b,8,8,11a-pentamethyl-2-oxo-3,3a,4,5,5a,5b,6,7,7a,8,11,11a,11b,12,13,13a-hexadecahydro-2H-cyclopenta[a]chrysen-9-yl)cyclohex-3-enecarboxylic acid]
EC50 (NL4-3 wt): 3390 nM
EC50 (V370A): > 25000 nM

SMILES: CC(C)C1=C2[C@H]3CC[C@@H]4[C@@]5(C)CC=C(C6=CCC(C(=O)O)CC6)C(C)(C)[C@@H]5CC[C@@]4(C)[C@]3(C)CC[C@@]2(C(=O)N(CCN(C)C)[C@H](C)c2ccc(Cl)cc2)CC1=O (stereo partly drawn) [Example 5, 4-((3aR,5aR,5bR,7aR,11aS,11bR,13aS)-3a-(((R)-1-(4-Chlorophenyl)ethyl) (2-(dimethylamino)ethyl)carbamoyl)-1-isopropyl-5a,5b,8,8,11a-pentamethyl-2-oxo-3,3a,4,5,5a,5b,6,7,7a,8,11,11a,11b,12,13,13a-hexadecahydro-2H-cyclopenta[a]chrysen-9-yl)cyclohex-3-enecarboxylic acid]
EC50 (NL4-3 wt): 7.6 nM
EC50 (V370A): 9.5 nM

SMILES: CC(C)C1=C2[C@H]3CC[C@@H]4[C@@]5(C)CC=C(C6=CCC(C(=O)O)CC6)C(C)(C)[C@@H]5CC[C@@]4(C)[C@]3(C)CC[C@@]2(C(=O)N(CCN(C)C)Cc2ccc(Cl)cc2)CC1=O (stereo partly drawn) [Example 6, 4-((3aR,5aR,5bR,7aR,11aS,11bR,13aS)-3a-((4-Chlorobenzyl) (2-(dimethylamino)ethyl)carbamoyl)-1-isopropyl-5a,5b,8,8,11a-pentamethyl-2-oxo-3,3a,4,5,5a,5b,6,7,7a,8,11,11a,11b,12,13,13a-hexadecahydro-2H-cyclopenta[a]chrysen-9-yl)cyclohex-3-enecarboxylic acid]
EC50 (NL4-3 wt): 11.2 nM
EC50 (V370A): 14.1 nM

SMILES: CC(C)C1=C2[C@H]3CC[C@@H]4[C@@]5(C)CC=C(c6ccc(C(=O)O)cc6)C(C)(C)[C@@H]5CC[C@@]4(C)[C@]3(C)CC[C@@]2(C(=O)N(CCN(C)C)[C@H](C)c2ccc(Cl)cc2)CC1=O [Example 7, 4-((3aR,5aR,5bR,7aR,11aS,11bR,13aS)-3a-(((R)-1-(4-Chlorophenyl)ethyl) (2-(dimethylamino)ethyl)carbamoyl)-1-isopropyl-5a,5b,8,8,11a-pentamethyl-2-oxo-3,3a,4,5,5a,5b,6,7,7a,8,11,11a,11b,12,13,13a-hexadecahydro-2H-cyclopenta[a]chrysen-9-yl)benzoic acid hydrochloride]
EC50 (NL4-3 wt): 8.5 nM
EC50 (V370A): 8.9 nM

SMILES: CC(C)C1=C2[C@H]3CC[C@@H]4[C@@]5(C)CC=C(c6ccc(C(=O)O)cc6)C(C)(C)[C@@H]5CC[C@@]4(C)[C@]3(C)CC[C@@]2(C(=O)N(CCN(C)C)Cc2ccc(Cl)cc2)CC1=O [Example 8, 4-((3aR,5aR,5bR,7aR,11aS,11bR,13aS)-3a-((4-Chlorobenzyl) (2-(dimethylamino)ethyl)carbamoyl)-1-isopropyl-5a,5b,8,8,11a-pentamethyl-2-oxo-3,3a,4,5,5a,5b,6,7,7a,8,11,11a,11b,12,13,13a-hexadecahydro-2H-cyclopenta[a]chrysen-9-yl)benzoic acid hydrochloride]
EC50 (NL4-3 wt): 28.8 nM
EC50 (V370A): 64.6 nM
